From patent US5753715A, “2-disubstituted cyclohexenyl and cyclohexyl antimicrobial agents” (Ortho Pharmaceutical Corporation, priority 1995, dated 1998)
Converted amounts (≈) assume the structure as drawn.

How the values were obtained:
Kinase A and SpoOF = target: T1, Kinase A and SpoOF (Bacillus subtilis, UniProt P16497); test: Autophosphorylation of Kinase A and Transphosphorylation of SPoOF Assay; format: biochemical; details: inhibition of Kinase A autophosphorylation / SpoOF transphosphorylation, [32P]ATP, gel, phosphoimager
T1 sequence (P16497 1-606): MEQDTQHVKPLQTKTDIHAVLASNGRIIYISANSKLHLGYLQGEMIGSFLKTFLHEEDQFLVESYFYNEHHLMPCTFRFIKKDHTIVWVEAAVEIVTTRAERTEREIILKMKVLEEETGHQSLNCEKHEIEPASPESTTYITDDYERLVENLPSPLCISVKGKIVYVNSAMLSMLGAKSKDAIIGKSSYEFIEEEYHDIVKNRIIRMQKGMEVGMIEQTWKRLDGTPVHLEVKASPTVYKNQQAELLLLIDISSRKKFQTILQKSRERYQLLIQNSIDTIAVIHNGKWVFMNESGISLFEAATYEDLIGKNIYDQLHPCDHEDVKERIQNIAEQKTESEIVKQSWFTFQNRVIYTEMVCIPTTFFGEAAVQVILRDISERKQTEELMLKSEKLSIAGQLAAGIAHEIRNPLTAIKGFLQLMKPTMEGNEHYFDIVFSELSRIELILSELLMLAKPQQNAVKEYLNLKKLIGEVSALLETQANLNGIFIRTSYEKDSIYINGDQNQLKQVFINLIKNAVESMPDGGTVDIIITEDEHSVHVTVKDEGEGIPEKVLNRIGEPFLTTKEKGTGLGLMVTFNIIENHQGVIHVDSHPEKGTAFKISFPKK

A. niger 10578 = test: MIC, microdilution broth method (NCCLS); format: cell-based; details: cation supplemented Mueller Hinton broth, 35° C., 16-20 hours; unit assumed
Procedure: (§1) The in vitro antimicrobial spectrum of the compounds of the present invention were determined by the microdilution broth method following the test method from the National Committee for […] (NCCLS ). The method is described in the NCCLS Document M7-A2, Vol. 10, No.8 "Methods for Dilution Antimicrobial Susceptibility Test for Bacteria that Grow Aerobically--Second Edition".
(§2) In this method two fold serial dilutions of drug in cation supplemented Mueller Hinton broth are added to wells in microdilution trays. The test organisms are prepared by adjusting the turbidity of actively growing broth cultures so that the final concentration of test organism after it is added to the wells is approximately 5×10^4 colony forming units per well delivered by the Steers replicating device.
(§3) Following inoculation of the microdilution trays, the trays are incubated at 35° C. for 16-20 hours and then read. […] The amount of growth in the wells containing the test compound is compared with the amount of growth in the growth-control wells used in each tray.

C. albicans 10231 = test: MIC, microdilution broth method (NCCLS); format: cell-based; details: cation supplemented Mueller Hinton broth, 35° C., 16-20 hours; unit assumed
Procedure: as §1, §2, §3

C. tropicalis = test: MIC, microdilution broth method (NCCLS); format: cell-based; details: cation supplemented Mueller Hinton broth, 35° C., 16-20 hours; unit assumed
Procedure: as §1, §2, §3

E. coli oc2530 = test: MIC, microdilution broth method (NCCLS); format: cell-based; details: cation supplemented Mueller Hinton broth, 35° C., 16-20 hours; unit assumed
Procedure: as §1, §2, §3

E. coli oc2605 = test: MIC, microdilution broth method (NCCLS); format: cell-based; details: cation supplemented Mueller Hinton broth, 35° C., 16-20 hours; unit assumed
Procedure: as §1, §2, §3

E. faecalis ACTCC 29212 = test: MIC, microdilution broth method (NCCLS); format: cell-based; details: cation supplemented Mueller Hinton broth, 35° C., 16-20 hours; unit assumed
Procedure: as §1, §2, §3

E. faecalis oc3041 = test: MIC, microdilution broth method (NCCLS); format: cell-based; details: cation supplemented Mueller Hinton broth, 35° C., 16-20 hours; unit assumed
Procedure: as §1, §2, §3

E. faecium oc2993 = test: MIC, microdilution broth method (NCCLS); format: cell-based; details: cation supplemented Mueller Hinton broth, 35° C., 16-20 hours; unit assumed
Procedure: as §1, §2, §3

K. pneum. oc1943 = test: MIC, microdilution broth method (NCCLS); format: cell-based; details: cation supplemented Mueller Hinton broth, 35° C., 16-20 hours; unit assumed
Procedure: as §1, §2, §3

MRSA oc2089 = test: MIC, microdilution broth method (NCCLS); format: cell-based; details: cation supplemented Mueller Hinton broth, 35° C., 16-20 hours; unit assumed
Procedure: as §1, §2, §3

MRSA oc667 = test: MIC, microdilution broth method (NCCLS); format: cell-based; details: cation supplemented Mueller Hinton broth, 35° C., 16-20 hours; unit assumed
Procedure: as §1, §2, §3

Ps. aerug. oc161 = test: MIC, microdilution broth method (NCCLS); format: cell-based; details: cation supplemented Mueller Hinton broth, 35° C., 16-20 hours; unit assumed
Procedure: as §1, §2, §3

Ps. aerug. oc27853 = test: MIC, microdilution broth method (NCCLS); format: cell-based; details: cation supplemented Mueller Hinton broth, 35° C., 16-20 hours; unit assumed
Procedure: as §1, §2, §3

S. aureus ATCC 29213 = test: MIC, microdilution broth method (NCCLS); format: cell-based; details: cation supplemented Mueller Hinton broth, 35° C., 16-20 hours; unit assumed
Procedure: as §1, §2, §3

S. epi oc2603 = test: MIC, microdilution broth method (NCCLS); format: cell-based; design: unit not given here; details: cation supplemented Mueller Hinton broth, 35° C., 16-20 hours
Procedure: as §1, §2, §3

| Structure (SMILES) | IC50 (Kinase A and SpoOF) [mM] | MIC A. niger 10578 (A. niger 10578) [µg/mL] | MIC C. albicans 10231 (C. albicans 10231) [µg/mL] | MIC C. tropicalis (C. tropicalis) [µg/mL] | MIC E. coli oc2530 (E. coli oc2530) [µg/mL] | MIC E. coli oc2605 (E. coli oc2605) [µg/mL] | MIC E. faecalis ACTCC 29212 (E. faecalis ACTCC 29212) [µg/mL] | MIC E. faecalis oc3041 (E. faecalis oc3041) [µg/mL] | MIC E. faecium oc2993 (E. faecium oc2993) [µg/mL] | MIC K. pneum. oc1943 (K. pneum. oc1943) [µg/mL] | MIC MRSA oc2089 (MRSA oc2089) [µg/mL] | MIC MRSA oc667 (MRSA oc667) [µg/mL] | MIC Ps. aerug. oc161 (Ps. aerug. oc161) [µg/mL] | MIC Ps. aerug. oc27853 (Ps. aerug. oc27853) [µg/mL] | MIC S. aureus ATCC 29213 (S. aureus ATCC 29213) [µg/mL] | MIC S. epi oc2603 (S. epi oc2603) | IC min (Kinase A and SpoOF) [mM] |
| --- | --- | --- | --- | --- | --- | --- | --- | --- | --- | --- | --- | --- | --- | --- | --- | --- | --- |
| NCCc1ccc(OCCC2(Cc3cc(Cl)cc(Cl)c3)C=CCCC2)cc1 (centres unmarked) [Compound 59] | 46.1 | 44 (≈ 109 µM) | 8 (≈ 19.8 µM) | 8 (≈ 19.8 µM) | 16 (≈ 39.6 µM) | ≥ 64 | 8 (≈ 19.8 µM) | 8 (≈ 19.8 µM) | 8 (≈ 19.8 µM) | > 128 | 8 (≈ 19.8 µM) | 8 (≈ 19.8 µM) | > 128 | > 128 | 8 (≈ 19.8 µM) | 8 | – |
| Clc1ccc(CC2(CCOc3ccc(CCNCCN4CCCC4)cc3)C=CCCC2)cc1 (centres unmarked) [Compound 34] | 295 | 8 (≈ 17.1 µM) | 8 (≈ 17.1 µM) | ≤ 4 | 4 (≈ 8.56 µM) | 8 (≈ 17.1 µM) | 4 (≈ 8.56 µM) | 4 (≈ 8.56 µM) | 4 (≈ 8.56 µM) | 32 (≈ 68.5 µM) | 4 (≈ 8.56 µM) | 4 (≈ 8.56 µM) | > 64 | > 64 | 4 (≈ 8.56 µM) | 4 | 125 |
| NCCCc1cnc(NCCC2(Cc3ccccc3)C=CCCC2)nc1 (centres unmarked) [Compound 49] | 162 | 16 (≈ 45.6 µM) | 32 (≈ 91.3 µM) | 16 (≈ 45.6 µM) | 16 (≈ 45.6 µM) | 128 (≈ 365 µM) | 32 (≈ 91.3 µM) | 32 (≈ 91.3 µM) | 32 (≈ 91.3 µM) | 128 (≈ 365 µM) | 32 (≈ 91.3 µM) | 32 (≈ 91.3 µM) | 128 (≈ 365 µM) | 128 (≈ 365 µM) | 64 (≈ 183 µM) | 16 | – |
| COc1ccc(CC2(CCOc3ccc(CCCNC(=N)N)cc3)C=CCCC2)cc1 (centres unmarked) [Compound 53] | 113 | 8 (≈ 19 µM) | 4 (≈ 9.49 µM) | 2 (≈ 4.74 µM) | 16 (≈ 38 µM) | > 64 | 4 (≈ 9.49 µM) | 8 (≈ 19 µM) | 8 (≈ 19 µM) | > 128 | 4 (≈ 9.49 µM) | 8 (≈ 19 µM) | > 128 | > 128 | 4 (≈ 9.49 µM) | 8 | – |
| C1=CC(CCOc2ccc(CCCNCCN3CCCC3)cc2)(Cc2ccccc2)CCC1 (centres unmarked) [Compound 3] | 159 | 4 (≈ 8.95 µM) | > 64 | 8 (≈ 17.9 µM) | 8 (≈ 17.9 µM) | 16 (≈ 35.8 µM) | 8 (≈ 17.9 µM) | 8 (≈ 17.9 µM) | 8 (≈ 17.9 µM) | 32 (≈ 71.6 µM) | 8 (≈ 17.9 µM) | 8 (≈ 17.9 µM) | > 64 | > 64 | 8 (≈ 17.9 µM) | 8 | 31.25 |
| NCCc1ccc(OCCC2(Cc3ccccc3)C=CCCC2)cc1 (centres unmarked) [Compound 17] | 38.3 | 4 (≈ 11.9 µM) | ≤ 16 | 4 (≈ 11.9 µM) | 8 (≈ 23.8 µM) | 64 (≈ 191 µM) | 8 (≈ 23.8 µM) | 8 (≈ 23.8 µM) | 8 (≈ 23.8 µM) | > 64 | 8 (≈ 23.8 µM) | 8 (≈ 23.8 µM) | > 64 | > 64 | 8 (≈ 23.8 µM) | 8 | 15.6 |
| COc1ccc(CC2(CCOc3ccc(CCN)cc3)C=CCCC2)cc1 (centres unmarked) [Compound 41] | 82.5 | 2 (≈ 5.47 µM) | 8 (≈ 21.9 µM) | 4 (≈ 10.9 µM) | 4 (≈ 10.9 µM) | > 64 | 8 (≈ 21.9 µM) | 8 (≈ 21.9 µM) | 8 (≈ 21.9 µM) | > 128 | 8 (≈ 21.9 µM) | 8 (≈ 21.9 µM) | > 128 | > 128 | 8 (≈ 21.9 µM) | 8 | 31.25 |
